ChEMBL document CHEMBL1201862, “PubChem BioAssay data set” (2004)
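Cells were grown in 96-well plates and exposed to each compound for 48 hours at five concentrations; endpoints were interpolated linearly between bracketing concentrations, or set to the highest concentration if not reached. GI50 = concentration required for 50% inhibition of growth.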 The source made the active and inactive calls. Cut-off read from the data, not from the text of the source: active = GI50 up to about 1.1 µM and inactive = higher.

Columns and labels:
Test in all cases: NCI tumour cell line growth inhibition, 48 h
A549 = tested on: A549
Malme-3M = tested on: Malme-3M
HCC 2998 = tested on: HCC 2998
RPMI-8226 = tested on: RPMI-8226
TK-10 = tested on: TK-10
MDA-MB-231 = tested on: MDA-MB-231
IGROV-1 = tested on: IGROV-1
UO-31 = tested on: UO-31
NCI-H23 = tested on: NCI-H23
CAKI-1 = tested on: CAKI-1
SNB-19 = tested on: SNB-19
CCRF-CEM = tested on: CCRF-CEM
RXF 393 = tested on: RXF 393
M14 = tested on: M14
SR = tested on: SR
HCT-116 = tested on: HCT-116
MOLT-4 = tested on: MOLT-4
SNB-75 = tested on: SNB-75
786-0 = tested on: 786-0
SF-539 = tested on: SF-539
MDA-N = tested on: MDA-N
T47D = tested on: T47D
NCI-H226 = tested on: NCI-H226
OVCAR-3 = tested on: OVCAR-3
MDA-MB-435 = tested on: MDA-MB-435
NCI/ADR-RES = tested on: NCI/ADR-RES
Hs-578T = tested on: Hs-578T
HOP-62 = tested on: HOP-62
SF-295 = tested on: SF-295
MCF7 = tested on: MCF7
U-251 = tested on: U-251
HOP-92 = tested on: HOP-92
SK-MEL-5 = tested on: SK-MEL-5
OVCAR-5 = tested on: OVCAR-5
HT-29 = tested on: HT-29
NCI-H522 = tested on: NCI-H522
SK-MEL-28 = tested on: SK-MEL-28
DU-145 = tested on: DU-145
COLO 205 = tested on: COLO 205
SF-268 = tested on: SF-268
SW-620 = tested on: SW-620
UACC-257 = tested on: UACC-257
ACHN = tested on: ACHN
NCI-H460 = tested on: NCI-H460
HL-60 = tested on: HL-60
OVCAR-8 = tested on: OVCAR-8
SN12C = tested on: SN12C
SK-MEL-2 = tested on: SK-MEL-2
LOX IMVI = tested on: LOX IMVI
A498 = tested on: A498
KM12 = tested on: KM12
UACC-62 = tested on: UACC-62
K562 = tested on: K562
EKVX = tested on: EKVX
HCT-15 = tested on: HCT-15
SK-OV-3 = tested on: SK-OV-3
OVCAR-4 = tested on: OVCAR-4
PC-3 = tested on: PC-3
BT-549 = tested on: BT-549

SMILES: Oc1nc2cc(Cl)ccc2nc1/C(=N\Nc1ccccc1)C(O)c1ccc2c(c1)OCO2 (stereo not drawn)
- GI50 (A549): > 100 µM (inactive)
- GI50 (Malme-3M): > 100 µM (inactive)
- GI50 (HCC 2998): > 100 µM (inactive)
- GI50 (RPMI-8226): > 100 µM (inactive)
- GI50 (TK-10): > 100 µM (inactive)
- GI50 (MDA-MB-231): > 100 µM (inactive)
- GI50 (IGROV-1): > 100 µM (inactive)
- GI50 (UO-31): > 100 µM (inactive)
- GI50 (NCI-H23): > 100 µM (inactive)
- GI50 (CAKI-1): > 100 µM (inactive)
- GI50 (SNB-19): > 100 µM (inactive)
- GI50 (CCRF-CEM): > 100 µM (inactive)
- GI50 (RXF 393): > 100 µM (inactive)
- GI50 (M14): > 100 µM (inactive)
- GI50 (SR): > 100 µM (inactive)
- GI50 (HCT-116): > 100 µM (inactive)
- GI50 (MOLT-4): > 100 µM (inactive)
- GI50 (SNB-75): > 100 µM (inactive)
- GI50 (786-0): > 100 µM (inactive)
- GI50 (SF-539): > 100 µM (inactive)
- GI50 (MDA-N): > 100 µM (inactive)
- GI50 (T47D): 72.8 µM (inactive)
- GI50 (NCI-H226): > 100 µM (inactive)
- GI50 (OVCAR-3): > 100 µM (inactive)
- GI50 (MDA-MB-435): > 100 µM (inactive)
- GI50 (NCI/ADR-RES): > 100 µM (inactive)
- GI50 (Hs-578T): > 100 µM (inactive)
- GI50 (HOP-62): > 100 µM (inactive)
- GI50 (SF-295): > 100 µM (inactive)
- GI50 (MCF7): > 100 µM (inactive)
- GI50 (U-251): > 100 µM (inactive)
- GI50 (HOP-92): > 100 µM (inactive)
- GI50 (SK-MEL-5): > 100 µM (inactive)
- GI50 (OVCAR-5): > 100 µM (inactive)
- GI50 (HT-29): > 100 µM (inactive)
- GI50 (NCI-H522): > 100 µM (inactive)
- GI50 (SK-MEL-28): > 100 µM (inactive)
- GI50 (DU-145): > 100 µM (inactive)
- GI50 (COLO 205): > 100 µM (inactive)
- GI50 (SF-268): > 100 µM (inactive)
- GI50 (SW-620): > 100 µM (inactive)
- GI50 (UACC-257): > 100 µM (inactive)
- GI50 (ACHN): > 100 µM (inactive)
- GI50 (NCI-H460): > 100 µM (inactive)
- GI50 (HL-60): > 100 µM (inactive)
- GI50 (OVCAR-8): > 100 µM (inactive)
- GI50 (SN12C): > 100 µM (inactive)
- GI50 (SK-MEL-2): > 100 µM (inactive)
- GI50 (LOX IMVI): > 100 µM (inactive)
- GI50 (A498): > 100 µM (inactive)
- GI50 (KM12): > 100 µM (inactive)
- GI50 (UACC-62): > 100 µM (inactive)
- GI50 (K562): > 100 µM (inactive)
- GI50 (EKVX): > 100 µM (inactive)
- GI50 (HCT-15): > 100 µM
- GI50 (SK-OV-3): > 100 µM (inactive)
- GI50 (OVCAR-4): > 100 µM (inactive)
- GI50 (PC-3): > 100 µM (inactive)
- GI50 (BT-549): > 100 µM (inactive)

SMILES: CC1C(=O)O[B-]2(c3ccccc3)Oc3ccccc3C=[N+]12 (stereo not drawn)
- GI50 (A549): > 100 µM (inactive)
- GI50 (Malme-3M): > 100 µM (inactive)
- GI50 (HCC 2998): > 100 µM (inactive)
- GI50 (RPMI-8226): > 100 µM (inactive)
- GI50 (TK-10): > 100 µM (inactive)
- GI50 (MDA-MB-231): > 100 µM (inactive)
- GI50 (IGROV-1): > 100 µM (inactive)
- GI50 (UO-31): > 100 µM (inactive)
- GI50 (NCI-H23): > 100 µM (inactive)
- GI50 (CAKI-1): > 100 µM (inactive)
- GI50 (SNB-19): > 100 µM (inactive)
- GI50 (CCRF-CEM): > 100 µM (inactive)
- GI50 (RXF 393): > 100 µM (inactive)
- GI50 (M14): > 100 µM (inactive)
- GI50 (SR): > 100 µM (inactive)
- GI50 (HCT-116): > 100 µM (inactive)
- GI50 (MOLT-4): > 100 µM (inactive)
- GI50 (SNB-75): 72.1 µM (inactive)
- GI50 (786-0): > 100 µM (inactive)
- GI50 (SF-539): > 100 µM (inactive)
- GI50 (MDA-N): > 100 µM (inactive)
- GI50 (T47D): > 100 µM (inactive)
- GI50 (NCI-H226): > 100 µM (inactive)
- GI50 (OVCAR-3): > 100 µM (inactive)
- GI50 (MDA-MB-435): > 100 µM (inactive)
- GI50 (NCI/ADR-RES): > 100 µM (inactive)
- GI50 (Hs-578T): > 100 µM (inactive)
- GI50 (HOP-62): > 100 µM (inactive)
- GI50 (SF-295): > 100 µM (inactive)
- GI50 (MCF7): 61.2 µM (inactive)
- GI50 (U-251): > 100 µM (inactive)
- GI50 (HOP-92): 31.3 µM (inactive)
- GI50 (SK-MEL-5): > 100 µM (inactive)
- GI50 (OVCAR-5): > 100 µM (inactive)
- GI50 (HT-29): > 100 µM (inactive)
- GI50 (NCI-H522): > 100 µM (inactive)
- GI50 (SK-MEL-28): > 100 µM (inactive)
- GI50 (DU-145): > 100 µM (inactive)
- GI50 (COLO 205): > 100 µM (inactive)
- GI50 (SF-268): > 100 µM (inactive)
- GI50 (SW-620): > 100 µM (inactive)
- GI50 (UACC-257): > 100 µM (inactive)
- GI50 (ACHN): > 100 µM (inactive)
- GI50 (NCI-H460): > 100 µM (inactive)
- GI50 (HL-60): 96.4 µM (inactive)
- GI50 (OVCAR-8): > 100 µM (inactive)
- GI50 (SN12C): > 100 µM (inactive)
- GI50 (SK-MEL-2): > 100 µM (inactive)
- GI50 (LOX IMVI): > 100 µM (inactive)
- GI50 (A498): > 100 µM (inactive)
- GI50 (KM12): > 100 µM (inactive)
- GI50 (UACC-62): > 100 µM (inactive)
- GI50 (K562): > 100 µM (inactive)
- GI50 (EKVX): > 100 µM (inactive)
- GI50 (HCT-15): > 100 µM
- GI50 (SK-OV-3): > 100 µM (inactive)
- GI50 (OVCAR-4): > 100 µM (inactive)
- GI50 (PC-3): > 100 µM (inactive)
- GI50 (BT-549): > 100 µM (inactive)
